Earlier results in patent US20150216798A1, “NOVEL ORALLY ADMINISTERED PHARMACEUTICAL FORMULATIONS” (Sanovel Ilac Sanayi Ve Ticaret Anonim Sirketi, priority 2012, published 2015).

Conditions: after oral administration

CN1CC(=O)N2[C@H](c3ccc4c(c3)OCO4)c3[nH]c4ccccc4c3C[C@@H]2C1=O [Tadalafil, (6R-trans)-6-(1,3-benzodioxol-5-yl)-2,3,6,7,12,12a-hexahydro-2-methyl-pyrazine [1′,2′:1,6]pyrido[3,4-b]indol-1,4-dion]
duration of effect: ≤ 36 h
onset of action: 15 min
